Data taken from patent publication US5863716A, “Treatment of plasmodium” (The Leland Stanford Junior University Board of Trustees, priority 1997, dated 1999).

Tests used:
sphingomyelin synthase = experiment: Inhibition of sphingomyelin biosynthesis in hypotonically lysed infected erythrocytes and fractions; format: biochemical, Plasmodium falciparum
Description: 1×10^8 infected cells 24 h after invasion were washed serum-free in RPMI 1640 and preincubated for thirty min at 37° C. in 1 ml of RPMI 1640 containing 0-5 μM or 0-500 μM of PPMP. (C6-NBD-ceramide (N-[7-(4-nitrobenzo-2-oxa-1,3-diazide)]-6-aminocaproyl-D-erythro-sphingosine) was added to each sample at a final concentration of 5 μM, the samples further incubated for 30 min at 37° C. and cellular lipids extracted. C6-NBD-sphingomyelin was resolved by TLC and quantitated by fluorescence spectrophotometry as described previously. Bligh, E. G. and Dyer, W. Y. (1959) A rapid method for total lipid extraction and purification., Can. J. Biochem. Physiol. 37: 911-917. Haldar, K., Uyetake, L., Ahori, N., Elmendorf, H. G. and Lu, W-1. (1991) The accumulation and metabolism of a fluorescent ceramide derivative in Plasmodium falciparum--infected erythrocytes., Mo. Biochem. Parasitol. 49: 143-156. Elmendorf, H. G. and Haldar, K. (1994) Plasmodium falciparum exports the Golgi marker sphingomyelin synthase into a tubovesicular network in the cytoplasm of mature erythrocytes., J. Cell Biol. 124: 449-462. Each value obtained represented the mean of triplicate determinations from five experiments. The arrow bars indicate the standard deviations. The results are depicted in FIG. 1.
Cells were washed serum-free in PBS and intact cells were incubated in PBS. Cells were lysed in 10 volumes of hypotonic buffer. Pellets and supernatants were separated by centrifugation at 10^4 ×G for 10 min at 4° C. Inhibition of sphingomyelin biosynthetic activity was carried out as described in Example 1. Glutamate dehydrogenase, a parasite cytosolic activity, was assayed using 10 μM alpha-ketoglutarate and 0.1 μM NADPH for 1 h at 37° C. by measuring the absorption at 340 nm in a spectrophotometer. The following table indicates the results

P. falciparum = experiment: Intraerythrocytic development in long term synchronized culture, parasitemia over consecutive cycles; format: cell-based, Plasmodium falciparum
Description: Synchronized cultures 12 h after invasion were subjected to different concentrations of PPMP. Parasitemias of drug-treated cultures were determined at various time points during two intraerythrocytic cycles and compared to cells grown in the absence of drug.
The effect of the single lipid analogs to inhibit parasite development in long term culture in consecutive cycles of the parasite growth were investigated. The studies were initiated with synchronized, young rings (0-12h) at 10% parasitemia. In order to ensure healthy growth of the malaria parasite in vitro, the parasitemias of the cultures are not allowed to exceed 10%. Yet under normal conditions a 3-6 fold increase in parasitemias is detected with each round of invasion: thus for each new cycle, the cultures were diluted 4-fold into fresh erythrocytes in the absence or presence of the drug. […] The lowest effective, killing concentration of PDMP over three cycles of growth is 1.0 μM.

protein synthesis = experiment: Effect on protein synthesis; format: cell-based
[1] = PPMP 0.05 μM, time in drug 0 h, time of cycle 12 h, cycle 1
[2] = PPMP 0.05 μM, time in drug 34 h, time of cycle 46 h, cycle 1, culture fourfold diluted
[3] = PPMP 0.05 μM, time in drug 60 h, time of cycle 12 h, cycle 2
[4] = PPMP 0.05 μM, time in drug 80 h, time of cycle 32 h, cycle 2, culture fourfold diluted
[5] = PPMP 0.05 μM, time in drug 104 h, time of cycle 8 h, cycle 3
[6] = PPMP 0.1 μM, time in drug 0 h, time of cycle 12 h, cycle 1
[7] = PPMP 0.1 μM, time in drug 34 h, time of cycle 46 h, cycle 1, culture fourfold diluted
[8] = PPMP 0.1 μM, time in drug 60 h, time of cycle 12 h, cycle 2
[9] = PPMP 0.1 μM, time in drug 80 h, time of cycle 32 h, cycle 2, culture fourfold diluted
[10] = PPMP 0.1 μM, time in drug 104 h, time of cycle 8 h, cycle 3
[11] = PPMP 0.5 μM, time in drug 0 h, time of cycle 12 h, cycle 1
[12] = PPMP 0.5 μM, time in drug 34 h, time of cycle 46 h, cycle 1, culture fourfold diluted
[13] = PPMP 0.5 μM, time in drug 60 h, time of cycle 12 h, cycle 2
[14] = PPMP 0.5 μM, time in drug 80 h, time of cycle 32 h, cycle 2, culture fourfold diluted
[15] = PPMP 0.5 μM, time in drug 104 h, time of cycle 8 h, cycle 3
[16] = PPMP 1.0 μM, time in drug 0 h, time of cycle 12 h, cycle 1
[17] = PPMP 1.0 μM, time in drug 34 h, time of cycle 46 h, cycle 1, culture fourfold diluted
[18] = PPMP 1.0 μM, time in drug 60 h, time of cycle 12 h, cycle 2
[19] = PPMP 1.0 μM, time in drug 80 h, time of cycle 32 h, cycle 2, culture fourfold diluted
[20] = PPMP 1.0 μM, time in drug 104 h, time of cycle 8 h, cycle 3
[21] = PPMP 5.0 μM, time in drug 0 h, time of cycle 12 h, cycle 1
[22] = PPMP 5.0 μM, time in drug 34 h, time of cycle 46 h, cycle 1, culture fourfold diluted
[23] = PPMP 5.0 μM, time in drug 60 h, time of cycle 12 h, cycle 2
[24] = PPMP 5.0 μM, time in drug 80 h, time of cycle 32 h, cycle 2, culture fourfold diluted
[25] = PPMP 5.0 μM, time in drug 104 h, time of cycle 8 h, cycle 3

`CCCCCCCCCCCCCCCC(=O)N[C@H](CN1CCOCC1)[C@H](O)c1ccccc1` (relative stereo) [PPMP, dl-threo-1-phenyl-2-palmitoylamino-3-morpholino-1-propanol] was tested. Which “inhibition of sphingomyelin biosynthesis at 5 μM PPMP [%]” value (from here on “inhibition … [%]”) (sphingomyelin synthase; hypotonic lysates) did it give?
The value was 33%.

What about the “inhibition … [%]” value (sphingomyelin synthase; pellet of lysate (10^4 x G)) of the same compound?
Its value is 30%.

And the “inhibition … [%]” value (sphingomyelin synthase; supernatant of lysate (10^4 x G))?
The value was 3%.

And the “effect on trophozoite stage parasites” value (P. falciparum)?
Its value is “blocks the development of trophozoite stage parasites”.

What about the “effect on ring development” value (P. falciparum; 5 μM, first cycle) of the same compound?
Its value is “completely inhibits rings in their first cycle growth”.

What about the “growth inhibition with increasing concentration” value (P. falciparum; 0.05 to 1.0 μM PPMP) of the same compound?
The value was “gradual increase in the observed growth inhibition”.

And the “parasitemia [%], ring” value (P. falciparum; [1])?
The value was 10%.

And the “parasitemia [%], schizont” value (P. falciparum; [1])?
Its value is 0%.

What about the “parasitemia [%], trophozoite” value (P. falciparum; [1]) of the same compound?
Its value is 0%.

What about the “parasitemia [%], ring” value (P. falciparum; [2]) of the same compound?
Its value is 0%.

And the “parasitemia [%], schizont” value (P. falciparum; [2])?
Its value is 5%.

What about the “parasitemia [%], trophozoite” value (P. falciparum; [2]) of the same compound?
Its value is 4%.

And the “parasitemia [%], ring” value (P. falciparum; [3])?
Its value is 5%.

What about the “parasitemia [%], schizont” value (P. falciparum; [3]) of the same compound?
The value was 1%.

And the “parasitemia [%], trophozoite” value (P. falciparum; [3])?
Its value is 0%.

What about the “parasitemia [%], ring” value (P. falciparum; [4]) of the same compound?
Its value is 5%.

And the “parasitemia [%], schizont” value (P. falciparum; [4])?
Its value is 0%.

What about the “parasitemia [%], trophozoite” value (P. falciparum; [4]) of the same compound?
The value was 0%.

And the “parasitemia [%], ring” value (P. falciparum; [5])?
Its value is 1%.

And the “parasitemia [%], schizont” value (P. falciparum; [5])?
The value was 0%.

What about the “parasitemia [%], trophozoite” value (P. falciparum; [5]) of the same compound?
The value was 0%.

And the “parasitemia [%], ring” value (P. falciparum; [6])?
The value was 10%.

And the “parasitemia [%], schizont” value (P. falciparum; [6])?
Its value is 0%.

What about the “parasitemia [%], trophozoite” value (P. falciparum; [6]) of the same compound?
The value was 0%.

And the “parasitemia [%], ring” value (P. falciparum; [7])?
Its value is 0%.

And the “parasitemia [%], schizont” value (P. falciparum; [7])?
Its value is 5%.

What about the “parasitemia [%], trophozoite” value (P. falciparum; [7]) of the same compound?
The value was 4%.

What about the “parasitemia [%], ring” value (P. falciparum; [8]) of the same compound?
The value was 4%.

What about the “parasitemia [%], schizont” value (P. falciparum; [8]) of the same compound?
The value was 1%.

What about the “parasitemia [%], trophozoite” value (P. falciparum; [8]) of the same compound?
The value was 0%.

And the “parasitemia [%], ring” value (P. falciparum; [9])?
Its value is 4%.

What about the “parasitemia [%], schizont” value (P. falciparum; [9]) of the same compound?
The value was 0%.

And the “parasitemia [%], trophozoite” value (P. falciparum; [9])?
The value was 0%.

And the “parasitemia [%], ring” value (P. falciparum; [10])?
The value was 1%.

What about the “parasitemia [%], schizont” value (P. falciparum; [10]) of the same compound?
Its value is 0%.

What about the “parasitemia [%], trophozoite” value (P. falciparum; [10]) of the same compound?
The value was 0%.

What about the “parasitemia [%], ring” value (P. falciparum; [11]) of the same compound?
The value was 10%.

What about the “parasitemia [%], schizont” value (P. falciparum; [11]) of the same compound?
Its value is 0%.

What about the “parasitemia [%], trophozoite” value (P. falciparum; [11]) of the same compound?
Its value is 0%.

And the “parasitemia [%], ring” value (P. falciparum; [12])?
The value was 0%.

What about the “parasitemia [%], schizont” value (P. falciparum; [12]) of the same compound?
The value was 4%.

What about the “parasitemia [%], trophozoite” value (P. falciparum; [12]) of the same compound?
Its value is 5%.

What about the “parasitemia [%], ring” value (P. falciparum; [13]) of the same compound?
The value was 4%.

And the “parasitemia [%], schizont” value (P. falciparum; [13])?
Its value is 1%.

And the “parasitemia [%], trophozoite” value (P. falciparum; [13])?
The value was 0%.

What about the “parasitemia [%], ring” value (P. falciparum; [14]) of the same compound?
Its value is 5%.

What about the “parasitemia [%], schizont” value (P. falciparum; [14]) of the same compound?
The value was 0%.

What about the “parasitemia [%], trophozoite” value (P. falciparum; [14]) of the same compound?
The value was 0%.

What about the “parasitemia [%], ring” value (P. falciparum; [15]) of the same compound?
The value was 1%.

What about the “parasitemia [%], schizont” value (P. falciparum; [15]) of the same compound?
The value was 0%.

What about the “parasitemia [%], trophozoite” value (P. falciparum; [15]) of the same compound?
Its value is 0%.

And the “parasitemia [%], ring” value (P. falciparum; [16])?
Its value is 10%.

And the “parasitemia [%], schizont” value (P. falciparum; [16])?
Its value is 0%.

What about the “parasitemia [%], trophozoite” value (P. falciparum; [16]) of the same compound?
The value was 0%.

What about the “parasitemia [%], ring” value (P. falciparum; [17]) of the same compound?
Its value is 0%.

What about the “parasitemia [%], schizont” value (P. falciparum; [17]) of the same compound?
The value was 4%.

What about the “parasitemia [%], trophozoite” value (P. falciparum; [17]) of the same compound?
Its value is 4%.

What about the “parasitemia [%], ring” value (P. falciparum; [18]) of the same compound?
Its value is 3%.

And the “parasitemia [%], schizont” value (P. falciparum; [18])?
Its value is 2%.

What about the “parasitemia [%], trophozoite” value (P. falciparum; [18]) of the same compound?
Its value is 0%.

And the “parasitemia [%], ring” value (P. falciparum; [19])?
Its value is 3%.

What about the “parasitemia [%], schizont” value (P. falciparum; [19]) of the same compound?
The value was 0%.

And the “parasitemia [%], trophozoite” value (P. falciparum; [19])?
Its value is 0%.

What about the “parasitemia [%], ring” value (P. falciparum; [20]) of the same compound?
The value was 1%.

And the “parasitemia [%], schizont” value (P. falciparum; [20])?
The value was 0%.

And the “parasitemia [%], trophozoite” value (P. falciparum; [20])?
The value was 0%.

What about the “parasitemia [%], ring” value (P. falciparum; [21]) of the same compound?
Its value is 10%.

What about the “parasitemia [%], schizont” value (P. falciparum; [21]) of the same compound?
Its value is 0%.

And the “parasitemia [%], trophozoite” value (P. falciparum; [21])?
The value was 0%.

And the “parasitemia [%], ring” value (P. falciparum; [22])?
Its value is 9%.

What about the “parasitemia [%], schizont” value (P. falciparum; [22]) of the same compound?
Its value is 0%.

And the “parasitemia [%], trophozoite” value (P. falciparum; [22])?
Its value is 0%.

And the “parasitemia [%], ring” value (P. falciparum; [23])?
The value was 2%.

What about the “parasitemia [%], schizont” value (P. falciparum; [23]) of the same compound?
The value was 0%.

And the “parasitemia [%], trophozoite” value (P. falciparum; [23])?
The value was 0%.

And the “parasitemia [%], ring” value (P. falciparum; [24])?
Its value is 0%.

What about the “parasitemia [%], schizont” value (P. falciparum; [24]) of the same compound?
The value was 0%.

And the “parasitemia [%], trophozoite” value (P. falciparum; [24])?
Its value is 0%.

And the “parasitemia [%], ring” value (P. falciparum; [25])?
Its value is 0%.

And the “parasitemia [%], schizont” value (P. falciparum; [25])?
Its value is 0%.

What about the “parasitemia [%], trophozoite” value (P. falciparum; [25]) of the same compound?
The value was 0%.

What about the effect on development (P. falciparum; concentrations as low as 0.05 μM, first cycle) of the same compound?
The effect on development was “do not stop development through the first cycle”.

What about the “efficacy compared with PDMP” value (P. falciparum; long term culture) of the same compound?
Its value is “more effective than PDMP”.

What about the “inhibition of protein synthesis” value (protein synthesis) of the same compound?
The value was “not inhibitory”.
